Experimental data from patent publication US10590140B2, “Tetrahydropyrimidodiazepine and dihydropyridodiazepine compounds for treating pain and pain related conditions” (ESTEVE PHARMACEUTICALS, S.A., priority 2016, dated 2020).
Where two headings read alike, the source gives them in different places.

Target: human α2δ-1 subunit of Cav2.2 calcium channel (Homo sapiens (Human), UniProt P54289)
Experiment: Binding assay to human α2δ-1 subunit of Cav2.2 calcium channel ([3H]-Gabapentin)
In short: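 [3H]-gabapentin binding, 60 min at 27° C; nonspecific binding defined with 10 μM pregabalin. Terminated by filtration on PEI-presoaked GF/C filters, ice-cold 50 mM Tris-HCl pH 7.4 washes, then scintillation counting.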

[1] = binding to α2δ-1, [3H]-Gabapentin, read-out: Ki (nM) α2δ-1

human α2δ-1 subunit of Cav2.2 calcium channel, sequence (P54289 25-1103): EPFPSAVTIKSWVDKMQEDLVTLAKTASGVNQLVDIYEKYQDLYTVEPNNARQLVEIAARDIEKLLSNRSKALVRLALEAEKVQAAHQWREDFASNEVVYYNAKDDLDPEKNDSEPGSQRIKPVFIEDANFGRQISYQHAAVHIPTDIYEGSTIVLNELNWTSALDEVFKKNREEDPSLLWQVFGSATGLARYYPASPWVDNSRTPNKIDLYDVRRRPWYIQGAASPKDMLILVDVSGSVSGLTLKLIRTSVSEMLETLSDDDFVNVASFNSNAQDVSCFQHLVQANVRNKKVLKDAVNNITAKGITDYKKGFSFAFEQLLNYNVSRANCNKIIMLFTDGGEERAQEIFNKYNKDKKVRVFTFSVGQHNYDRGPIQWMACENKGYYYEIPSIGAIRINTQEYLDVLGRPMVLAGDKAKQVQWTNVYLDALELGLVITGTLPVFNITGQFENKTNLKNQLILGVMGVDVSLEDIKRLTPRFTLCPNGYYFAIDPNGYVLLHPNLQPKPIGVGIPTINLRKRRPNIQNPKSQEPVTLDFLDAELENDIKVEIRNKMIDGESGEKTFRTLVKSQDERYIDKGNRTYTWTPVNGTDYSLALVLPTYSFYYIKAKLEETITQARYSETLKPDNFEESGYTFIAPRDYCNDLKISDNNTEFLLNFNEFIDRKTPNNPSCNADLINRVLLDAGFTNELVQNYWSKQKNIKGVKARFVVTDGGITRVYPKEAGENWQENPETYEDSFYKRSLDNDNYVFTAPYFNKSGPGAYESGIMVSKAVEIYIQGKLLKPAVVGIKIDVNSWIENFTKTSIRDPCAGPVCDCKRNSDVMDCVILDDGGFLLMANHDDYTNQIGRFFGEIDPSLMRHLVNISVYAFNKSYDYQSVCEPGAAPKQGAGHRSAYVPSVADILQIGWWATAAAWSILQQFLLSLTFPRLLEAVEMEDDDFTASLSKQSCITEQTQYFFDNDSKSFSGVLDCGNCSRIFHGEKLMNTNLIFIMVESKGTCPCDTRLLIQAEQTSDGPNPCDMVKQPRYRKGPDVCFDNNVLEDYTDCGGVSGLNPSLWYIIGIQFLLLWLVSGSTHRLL

SMILES | Ki [1] | Ki
CCNc1ncc2c(n1)N(C)CCN(c1cccc(-n3cc(CN(C)CCOCCO)nn3)c1)C2=O [Example 273, 2-(ethylamino)-6-(3-(4-(((2-(2-hydroxyethoxy)ethyl) (methyl)amino)methyl)-1H-1,2,3-triazol-1-yl)phenyl)-9-methyl-6,7,8,9-tetrahydro-5H-pyrimido[4,5-e][1,4]diazepin-5-one] | 500 to 3000 nM | –
CCNc1ncc2c(n1)N(C)CCN(c1cccc(CCOS(=O)(=O)c3ccc(C)cc3)c1)C2=O [Example 274, 3-(2-(Ethylamino)-9-methyl-5-oxo-5,7,8,9-tetrahydro-6H-pyrimido[4,5-e][1,4]diazepin-6-yl)phenethyl 4-methylbenzenesulfonate] | > 3000 nM | –
CCNc1ncc2c(n1)N(C)CCN(c1cccc(CCN3CCC4(CC3)CN(C(C)C)C(=O)[C@@H](C)O4)c1)C2=O [Example 276, (R)-9-(3-(2-(ethylamino)-9-methyl-5-oxo-5,7,8,9-tetrahydro-6H-pyrimido[4,5-e][1,4]diazepin-6-yl)phenethyl)-4-isopropyl-2-methyl-1-oxa-4,9-diazaspiro[5.5]undecan-3-one] | 100 to 500 nM | –
CCNc1ncc2c(n1)N(C)CCN(c1cccc(-n3cc(CN4CCN(c5ccccc5)CC4)nn3)c1)C2=O [Example 280, 2-(ethylamino)-9-methyl-6-(3-(4-((4-phenylpiperazin-1-yl)methyl)-1H-1,2,3-triazol-1-yl)phenyl)-6,7,8,9-tetrahydro-5H-pyrimido[4,5-e] [1,4]diazepin-5-one] | 100 to 500 nM | –
CCNc1ncc2c(n1)N(C)CCN(c1cccc(-n3cc(CN4CCc5ccccc5C4)nn3)c1)C2=O [Example 282, 6-(3-(4-((3,4-dihydroisoquinolin-2(1H)-yl)methyl)-1H-1,2,3-triazol-1-yl)phenyl)-2-(ethylamino)-9-methyl-6,7,8,9-tetrahydro-5H-pyrimido[4,5-e] [1,4]diazepin-5-one] | 500 to 3000 nM | –
CCNc1ncc2c(n1)N(C)CCN(c1cccc(-n3cc(CN4CCC5(CC4)NCCc4ccccc45)nn3)c1)C2=O [Example 283, 6-(3-(4-((3,4-dihydro-2H-spiro[isoquinoline-1,4′-piperidin]-1′-yl)methyl)-1H-1,2,3-triazol-1-yl)phenyl)-2-(ethylamino)-9-methyl-6,7,8,9-tetrahydro-5H-pyrimido[4,5-e] [1,4]diazepin-5-one] | 100 to 500 nM | –
CCNc1ncc2c(n1)N(C)CCN(c1cccc(-n3cc(CN4CCC5(CC4)CN(C(C)C)C(=O)[C@@H](C)O5)nn3)c1)C2=O [Example 284, (R)-9-((1-(3-(2-(ethylamino)-9-methyl-5-oxo-5,7,8,9-tetrahydro-6H-pyrimido[4,5-e] [1,4]diazepin-6-yl)phenyl)-1H-1,2,3-triazol-4-yl)methyl)-4-isopropyl-2-methyl-1-oxa-4,9-diazaspiro[5.5] undecan-3-one] | 100 to 500 nM | –
CCNCc1cn(-c2cccc(N3CCN(C)c4nc(NCC)ncc4C3=O)c2)nn1 [Example 286, 2-(ethylamino)-6-(3-(4-((ethylamino)methyl)-1H-1,2,3-triazol-1-yl)phenyl)-9-methyl-6,7,8,9-tetrahydro-5H-pyrimido[4,5-e] [1,4]diazepin-5-one] | 100 to 500 nM | –
CCNc1ncc2c(n1)N(C)CCN(c1cccc(-n3cc(CNCCOCCO)nn3)c1)C2=O [Example 290, 2-(ethylamino)-6-(3-(4-(((2-(2-hydroxyethoxy)ethyl)amino)methyl)-1H-1,2,3-triazol-1-yl)phenyl)-9-methyl-6,7,8,9-tetrahydro-5H-pyrimido[4,5-e] [1,4]diazepin-5-one] | 100 to 500 nM | –
CCNc1ncc2c(n1)N(C)CCN(c1cccc(-n3cc(CN4CCC(c5ccccc5)(N(C)C)CC4)nn3)c1)C2=O [Example 291, 6-(3-(4-((4-(dimethylamino)-4-phenylpiperidin-1-yl)methyl)-1H-1,2,3-triazol-1-yl)phenyl)-2-(ethylamino)-9-methyl-6,7,8,9-tetrahydro-5H-pyrimido[4,5-e] [1,4]diazepin-5-one] | 100 to 500 nM | –
CCNc1ncc2c(n1)N(C)CCN(c1cccc(CN3CCC(c4ccccc4)(N(C)C)CC3)c1)C2=O [Example 292, 6-(3-((4-(dimethylamino)-4-phenylpiperidin-1-yl)methyl)phenyl)-2-(ethylamino)-9-methyl-6,7,8,9-tetrahydro-5H-pyrimido[4,5-e] [1,4]diazepin-5-one] | 500 to 3000 nM | –
CCNc1ncc2c(n1)N(C)CCN(c1cccc(-n3cc(CN4CCC(c5cccc(O)c5)(N(C)C)CC4)nn3)c1)C2=O [Example 293, 6-(3-(4-((4-(dimethylamino)-4-(3-hydroxyphenyl)piperidin-1-yl)methyl)-1H-1,2,3-triazol-1-yl)phenyl)-2-(ethylamino)-9-methyl-6,7,8,9-tetrahydro-5H-pyrimido[4,5-e] [1,4]diazepin-5-one] | – | 100 to 500 nM
CCNc1ncc2c(n1)N(C)CCN(c1cccc(-n3cc(CN4CCC(c5ccccc5)(N(C)C)CC4)cn3)c1)C2=O [Example 294, 6-(3-(4-((4-(dimethylamino)-4-phenylpiperidin-1-yl)methyl)-1H-pyrazol-1-yl)phenyl)-2-(ethylamino)-9-methyl-6,7,8,9-tetrahydro-5H-pyrimido[4,5-e] [1,4]diazepin-5-one] | 500 to 3000 nM | –
CCNc1ncc2c(n1)N(C)CCN(c1cccc(-n3cc(CN4CCC(c5cccc(O)c5)(N(C)C)CC4)cn3)c1)C2=O [Example 295, 6-(3-(4-((4-(dimethylamino)-4-(3-hydroxyphenyl)piperidin-1-yl)methyl)-1H-pyrazol-1-yl)phenyl)-2-(ethylamino)-9-methyl-6,7,8,9-tetrahydro-5H-pyrimido[4,5-e] [1,4]diazepin-5-one] | 100 to 500 nM | –
CCNc1ncc2c(n1)N(C)CCN(c1cccc(-n3cnc(CN4CCC(c5cccc(O)c5)(N(C)C)CC4)c3)c1)C2=O [Example 296, 6-(3-(4-((4-(dimethylamino)-4-(3-hydroxyphenyl)piperidin-1-yl)methyl)-1H-imidazol-1-yl)phenyl)-2-(ethylamino)-9-methyl-6,7,8,9-tetrahydro-5H-pyrimido[4,5-e][1,4]diazepin-5-one] | 500 to 3000 nM | –
CN(CCC(Oc1cccc(N2CCN(C)c3cc(Cl)ncc3C2=O)c1)c1cccs1)C(=O)OCC[Si](C)(C)C (stereo not drawn) [Example 297, 2-(trimethylsilyl)ethyl (3-(3-(8-chloro-1-methyl-5-oxo-1,2,3,5-tetrahydro-4H-pyrido[4,3-e][1,4]diazepin-4-yl)phenoxy)-3-(thiophen-2-yl)propyl)(methyl) carbamate] | > 3000 nM | –
CN(CC[C@H](Oc1cccc(N2CCN(C)c3cc(Cl)ncc3C2=O)c1)c1cccs1)C(=O)OCC[Si](C)(C)C [Example 298, 2-(trimethylsilyl)ethyl (S)-(3-(3-(8-chloro-1-methyl-5-oxo-1,2,3,5-tetrahydro-4H-pyrido[4,3-e][1,4]diazepin-4-yl)phenoxy)-3-(thiophen-2-yl)propyl)(methyl) carbamate] | > 3000 nM | –
CN(CC[C@H](Oc1ccc(CN2CCN(C)c3cc(Cl)ncc3C2=O)cc1)c1cccs1)C(=O)OCC[Si](C)(C)C [Example 299, 2-(trimethylsilyl)ethyl (S)-(3-(4-((8-chloro-1-methyl-5-oxo-1,2,3,5-tetrahydro-4H-pyrido[4,3-e][1,4]diazepin-4-yl)methyl)phenoxy)-3-(thiophen-2-yl)propyl)(methyl) carbamate] | > 3000 nM | –
